Target: Endothelin receptor type B (Sus scrofa)
Assay: Inhibition of [125I]ET1 binding to porcine kidney inner medulla membrane Endothelin B receptor

| SMILES | IC50 |
| --- | --- |
| COc1ccc(-c2c(C(=O)O)c(=O)n(Cc3ccc4nsnc4c3)c3c2oc2ccccc23)cc1 [1-Benzo[1,2,5]thiadiazol-5-ylmethyl-4-(4-methoxy-phenyl)-2-oxo-1,2-dihydro-benzo[4,5]furo[3,2-b]pyridine-3-carboxylic acid] | 300 nM |
| CN(C)c1cccc2c(S(=O)(=O)Nc3ccc4c(c3)OCO4)cccc12 [5-Dimethylamino-naphthalene-1-sulfonic acid benzo[1,3]dioxol-5-ylamide] | > 10000 nM |
| COc1ccc(-c2c(C(=O)O)c(=O)n(Cc3ccc4c(c3)OCO4)c3c2oc2ccccc23)cc1 [1-Benzo[1,3]dioxol-5-ylmethyl-4-(4-methoxy-phenyl)-2-oxo-1,2-dihydro-benzo[4,5]furo[3,2-b]pyridine-3-carboxylic acid] | 440 nM |
| COc1ccc(C2(O)OC(=O)C(c3ccc4nsnc4c3)=C2Cc2cc(OC)c(OC)c(OC)c2)cc1 (configuration not stated) [3-Benzo[1,2,5]thiadiazol-5-yl-5-hydroxy-5-(4-methoxy-phenyl)-4-(3,4,5-trimethoxy-benzyl)-5H-furan-2-one] | 340 nM |

Results, then the compound that gave them:

| IC50 | SMILES |
| --- | --- |
| 1200 nM | CCCOc1ccc2c(c1)c(-c1ccc(OC)cc1)c(C(=O)O)n2Cc1ccc2nsnc2c1 [1-Benzo[1,2,5]thiadiazol-5-ylmethyl-3-(4-methoxy-phenyl)-5-propoxy-1H-indole-2-carboxylic acid] |
| 5300 nM | CCCOc1ccc2c(c1)c(-c1ccc3c(c1)OCO3)c(C(=O)O)n2Cc1ccc2nonc2c1 [3-Benzo[1,3]dioxol-5-yl-1-benzo[1,2,5]oxadiazol-5-ylmethyl-5-propoxy-1H-indole-2-carboxylic acid] |
| 1600 nM | CCCOc1ccc2c(c1)c(-c1ccc3c(c1)OCO3)c(C(=O)O)n2Cc1ccc2c(c1)OCO2 [3-Benzo[1,3]dioxol-5-yl-1-benzo[1,3]dioxol-5-ylmethyl-5-propoxy-1H-indole-2-carboxylic acid] |

— BindingDB's records for doi:10.1016/s0960-894x(97)10151-2 (Merck, 1999)
